From publication PMC8483441 (Journal of Medicinal Chemistry, 2021)
Converted amounts (≈) assume the structure as drawn. “Also recorded” adds a separate entry of the source. Where two headings read alike, the source gives them in different places. Square brackets hold non-standard residues; d marks the D form. Peptide text beside a SMILES is read from it. hArg = N=C(N)NCCCC[C@H](N)C(=O)O; Dab = NCC[C@H](N)C(=O)O

Tests used:
[1] = 50% (v/v) Human Serum; details: up to 480 min
[2] = system: S. flexneri; details: 24 h
From the text: Purified horse red blood cells were acquired from Thermo Fisher Scientific (Hampshire, England). Human serum was purchased from Sigma (St Louis, USA). E. coli was obtained from the Coli Genetic Stock Center (BW25113). S. flexneri (ATCC 29903), A. baumannii (ATCC 15308), Pseudomonas sp. (ATCC 15915), and S. enterica (ATCC 14028) were obtained from the CECT (Valencia, Spain). Clinical strains were supplied by the Vall d’Hebron Hospital (Barcelona, Spain). MRC5 fibroblasts were obtained from the Cytometry and Cell Culture Facility (SCAC, UAB) and originally purchased from ATCC.
The antibiotic activity was defined by the minimum peptide concentration where the microorganism is unable to grow. The assay was done in polypropylene 96-well plates (Greiner, Frickenhausen, Germany) to avoid peptide binding to plate wells. Peptides were dissolved in water containing 0.4% w/v bovine serum albumin (BSA) and 0.02% v/v glacial acetic acid to prevent self-aggregation, following the reference protocol by Wiegand et al.,[42] based on the classical microtiter broth dilution recommended by the […]. Initial bacteria inoculum was adjusted to 5 × 10^5 CFU/mL in Mueller-Hinton (MH) medium. Incubations were kept at 37 °C for 24 h. Results are the average of three independent studies. MIC assays in the presence of serum were performed by incubating the peptide with human serum at a 1:1 ratio. Then, 10^6 cfu/mL of Pseudomonas sp. were incubated with serial dilutions of the peptides for 4 h. To determine the MBC, 50 μL from all wells were seeded into Petri plates and incubated for 24 h. The MBC concentration was attributed to the lowest concentration without detectable bacterial growth for each peptide.

[3] = system: horse red blood cells; test: Hemolytic activity; format: cell-based
Method: The peptide toxicity was determined detecting the disruption of horse red blood cells, following a previous assay report.[35] 10-fold diluted cells in PBS were centrifuged three times at 800g to eliminate the hemoglobin from disrupted cells. After the last resuspension, erythrocytes were incubated with the peptides for 4 h at 37 °C. The detection was done measuring the supernatant absorbance in a VICTOR3 multilabel plate reader (Perkin Elmer, Waltham, Massachusetts) at 540 nm in a microplate reader. Percentage of hemolysis was calculated through a pattern done with dilutions of total cell lysis done with a 1% Triton X-100 buffer. Results are the average of three independent studies.

[4] = system: Pseudomonas sp.; test: MIC of peptides incubated with human serum; format: cell-based; details: peptide incubated with human serum 1:1; 10^6 cfu/mL Pseudomonas sp., 4 h
Method: (§1) Incubations were kept at 37 °C for 24 h. Results are the average of three independent studies.

[5] = system: S. enterica; format: cell-based, Salmonella enterica; details: 24 h
Method: (§2) Human serum was purchased from Sigma (St Louis, USA).
as §1

[6] = Cytotoxicity in mammalian cells (MTT assay); format: cell-based; details: MRC-5 cytotoxicity (IC50)
Method: MRC-5 cells were grown in Eagle’s minimum essential medium (MEMα), supplemented with 10% fetal bovine serum (FBS). 96-well plates were seeded with 3 × 10^4 cells/well and cultured overnight in order to get cells adhered into the plate and then incubated with two-fold peptide serial dilutions. After 4 h of incubation, the medium containing the peptides was replaced by MEMα supplemented with FBS and 3-(4,5-dimethylthiazol-2-yl)-2,5-diphenyltetrazolium bromide (MTT) at 0.4 mg/mL and incubated for 150 min. Detection of formazan crystals in the living cells was done by cell disruption by addition of 200 μL of dimethyl sulfoxide (DMSO) followed by absorbance measuring at 600 nm in a Tecan Infinite F Nano+ microplate reader (Tecan, Germany). Results are the average of three independent studies.

[7] = system: E. coli; format: cell-based, Escherichia coli; details: 24 h
Method: as §2, §1

[8] = system: Pseudomonas sp.; test: MIC, broth microdilution; format: cell-based; details: Pseudomonas sp. ATCC 15915; Mueller-Hinton medium, 5 × 10^5 CFU/mL, 37 °C, 24 h; average of three independent studies
Method: as §2, §1

[9] = system: Salmonella enterica; format: cell-based; details: 24 h
Method: as §1

[10] = system: Escherichia coli; format: cell-based; details: 24 h
Method: as §1

[11] = system: Acinetobacter baumannii; format: cell-based; details: 24 h
Method: as §1

[12] = system: A. baumannii; format: cell-based, Acinetobacter baumannii; details: 24 h
Method: as §2, §1

[13] = system: Pseudomonas sp.; test: Minimum bactericidal concentration (MBC); format: cell-based; details: 50 μL from MIC wells seeded into Petri plates, 24 h; lowest concentration without detectable growth
Method: as §1

[14] = system: Shigella flexneri; details: 50 μL from MIC wells seeded into Petri plates, 24 h; lowest concentration without detectable growth
Method: The antibiotic activity was defined by the minimum peptide concentration where the microorganism is unable to grow. The assay was done in polypropylene 96-well plates (Greiner, Frickenhausen, Germany) to avoid peptide binding to plate wells. Peptides were dissolved in water containing 0.4% w/v bovine serum albumin (BSA) and 0.02% v/v glacial acetic acid to prevent self-aggregation, following the reference protocol by Wiegand et al.,[42] based on the classical microtiter broth dilution recommended by the National Committee of Laboratory Safety and Standards (NCLSS). Initial bacteria inoculum was adjusted to 5 × 10^5 CFU/mL in Mueller-Hinton (MH) medium. Incubations were kept at 37 °C for 24 h. Results are the average of three independent studies. […] To determine the MBC, 50 μL from all wells were seeded into Petri plates and incubated for 24 h. The MBC concentration was attributed to the lowest concentration without detectable bacterial growth for each peptide.

[15] = system: E. coli; test: Antimicrobial resistance, recurrent incubation; format: cell-based; details: for MIC: Escherichia coli
Method: To test whether recurrent incubation of bacteria with peptides could induce resistance, E. coli (10^7 cfu/mL) were incubated with peptides (1 μM) or ciprofloxacin (1 μg/mL) for 1 h. After incubation, cells were centrifuged, washed, and grown overnight in Mueller-Hinton medium. The cycle of incubation and growth was repeated in a cyclic manner for 7 days, and each day, cultures were tested for MIC to detect resistance.

[16] = 50 μL from MIC wells seeded into Petri plates, lowest concentration without detectable growth

Row | cleaved bond [1] | Compound | MIC S. flexneri [2] | hemolysis % (250 μM peptide) ([3]; red cells of horse, 4 h, 250) | MIC in Pseudomonas sp., peptides incubated with human serum [4] | MIC S. enterica [5] | IC50 [6] | MIC E. coli [7] | MIC Pseudomonas sp. [8] | MBC Salmonella enterica [9] | MBC Escherichia coli [10] | MBC Acinetobacter baumannii [11] | MIC A. baumannii [12] | MBC Pseudomonas sp. [13] | MBC Shigella flexneri [14] | also measured
1 | Pro2-Phe3 | OPFTOAQWFAIQHISPOTIAMOAINNYOWO |  |  |  |  |  |  |  |  |  |  |  |  |  | fragment found [1]: OPFTOAQWFAIQHISPO-------------; also recorded: -----------------TIAMOAINNYOWO; also recorded: OPFTOAQWFAIQHIS---------------; also recorded: ------QWFAIQHISPOTIAMOAINNY---
2 |  | CC[C@H](C)[C@H](NC(=O)[C@H](C)NC(=O)[C@H](CCCCNC(=N)N)NC(=O)[C@H](CCSC)NC(=O)[C@H](C)NC(=O)[C@@H](NC(=O)[C@@H](NC(=O)[C@H](CCCCNC(=N)N)NC(=O)[C@@H]1CCCN1C(=O)[C@H](CO)NC(=O)[C@@H](NC(=O)[C@H](Cc1c[nH]cn1)NC(=O)[C@H](CCC(N)=O)NC(=O)[C@@H](NC(=O)[C@H](C)NC(=O)[C@H](Cc1ccccc1)NC(=O)[C@H](Cc1c[nH]c2ccccc12)NC(=O)[C@H](CCC(N)=O)NC(=O)[C@H](C)NC(=O)[C@H](CCCCNC(=N)N)NC(=O)[C@@H](NC(=O)[C@H](Cc1ccccc1)NC(=O)[C@@H]1CCCN1C(=O)[C@@H](N)CCCCNC(=N)N)[C@@H](C)O)[C@@H](C)CC)[C@@H](C)CC)[C@@H](C)O)[C@@H](C)CC)C(=O)N[C@@H](CC(N)=O)C(=O)N[C@@H](CC(N)=O)C(=O)N[C@@H](Cc1ccc(O)cc1)C(=O)N[C@@H](CCCCNC(=N)N)C(=O)N[C@@H](Cc1c[nH]c2ccccc12)C(=O)N[C@@H](CCCCNC(=N)N)C(N)=O [compound 4] (H-[hArg]PFT[hArg]AQWFAIQHISP[hArg]TIAM[hArg]AINNY[hArg]W[hArg]-NH2) | 3.13 µM (≈ 12 µg/mL) | 43 ± 1% | 6.25 µM | 25 µM (≈ 96 µg/mL) | 7.6 ± 0.7 µM | 6.25 µM (≈ 24 µg/mL) | 3.13 µM (≈ 12 µg/mL) | 25 µM (≈ 96 µg/mL) | 6.25 µM (≈ 24 µg/mL) | 12.5 µM (≈ 48 µg/mL) | 12.5 µM (≈ 48 µg/mL) | 3.13 µM (≈ 12 µg/mL) | 3.13 µM (≈ 12 µg/mL) | 
3 |  | O=C(O)c1cn(C2CC2)c2cc(N3CCNCC3)c(F)cc2c1=O [ciprofloxacin] |  |  |  |  |  |  |  |  |  |  |  |  |  | MIC ([15]; after four cycles of incubation with ciprofloxacin (1 μM; 1 μg/mL elsewhere in the source), 1 h per cycle, 10^7 cfu/mL, read-out: MIC against E. coli after four cycles of incubation): 5 µM (≈ 1.66 µg/mL); MIC ([15]; start of recurrent incubation, read-out: MIC against E. coli before resistance cycles): 1.5 µM (≈ 0.497 µg/mL)
4 |  | CC[C@H](C)[C@H](NC(=O)[C@H](CCCCN)NC(=O)[C@H](CCC(=O)O)NC(=O)[C@H](CCCCN)NC(=O)[C@H](CO)NC(=O)[C@H](CCCCN)NC(=O)[C@H](CCCNC(=N)N)NC(=O)[C@H](Cc1ccccc1)NC(=O)[C@H](Cc1ccccc1)NC(=O)[C@H](CC(=O)O)NC(=O)CNC(=O)[C@H](CC(C)C)NC(=O)[C@@H](N)CC(C)C)C(=O)NCC(=O)N[C@@H](CCCCN)C(=O)N[C@@H](CCC(=O)O)C(=O)N[C@@H](Cc1ccccc1)C(=O)N[C@@H](CCCCN)C(=O)N[C@@H](CCCNC(=N)N)C(=O)N[C@H](C(=O)N[C@H](C(=O)N[C@@H](CCC(N)=O)C(=O)N[C@@H](CCCNC(=N)N)C(=O)N[C@H](C(=O)N[C@@H](CCCCN)C(=O)N[C@@H](CC(=O)O)C(=O)N[C@@H](Cc1ccccc1)C(=O)N[C@@H](CC(C)C)C(=O)N[C@@H](CCCNC(=N)N)C(=O)N[C@@H](CC(N)=O)C(=O)N[C@@H](CC(C)C)C(=O)N[C@H](C(=O)N1CCC[C@H]1C(=O)N[C@@H](CCCNC(=N)N)C(=O)N[C@H](C(=O)N[C@@H](CCC(=O)O)C(=O)N[C@@H](CO)C(=O)O)[C@@H](C)O)C(C)C)[C@@H](C)CC)C(C)C)[C@@H](C)CC [LL-37, reference compound] |  |  |  |  |  |  | 1.56 µM (≈ 7.01 µg/mL) |  |  |  |  | 1.56 µM (≈ 7.01 µg/mL) | 12.5 µM (≈ 56.2 µg/mL) | MIC S. flexneri ([2]; S. flexneri ATCC 29903, Mueller-Hinton medium, 5 × 10^5 CFU/mL, 37 °C, average of three independent studies): 12.5 µM (≈ 56.2 µg/mL); MIC S. enterica ([5]; S. enterica ATCC 14028, Mueller-Hinton medium, 5 × 10^5 CFU/mL, 37 °C, average of three independent studies): 12.5 µM (≈ 56.2 µg/mL); increase in MIC (induced resistance) in E. coli ([15]; 7 rounds of incubation with 1 μM peptide, below the MIC): did not detect a significant increase in MIC; MBC Salmonella enterica [9, 16]: 12.5 µM (≈ 56.2 µg/mL); MBC Escherichia coli [10, 16]: 1.56 µM (≈ 7.01 µg/mL); MBC Acinetobacter baumannii [11, 16]: 6.25 µM (≈ 28.1 µg/mL); MIC A. baumannii ([12]; A. baumannii ATCC 15308, Mueller-Hinton medium, 5 × 10^5 CFU/mL, 37 °C, average of three independent studies): 6.25 µM (≈ 28.1 µg/mL)
5 | Pro2-Phe3 | RPFTRAQWFAIQHISPRTIAMRAINNYRWR |  |  |  |  |  |  |  |  |  |  |  |  |  | 
6 |  | CC[C@H](C)[C@H](NC(=O)[C@H](C)NC(=O)[C@H](CCN)NC(=O)[C@H](CCSC)NC(=O)[C@H](C)NC(=O)[C@@H](NC(=O)[C@@H](NC(=O)[C@H](CCN)NC(=O)[C@@H]1CCCN1C(=O)[C@H](CO)NC(=O)[C@@H](NC(=O)[C@H](Cc1c[nH]cn1)NC(=O)[C@H](CCC(N)=O)NC(=O)[C@@H](NC(=O)[C@H](C)NC(=O)[C@H](Cc1ccccc1)NC(=O)[C@H](Cc1c[nH]c2ccccc12)NC(=O)[C@H](CCC(N)=O)NC(=O)[C@H](C)NC(=O)[C@H](CCN)NC(=O)[C@@H](NC(=O)[C@H](Cc1ccccc1)NC(=O)[C@@H]1CCCN1C(=O)[C@@H](N)CCN)[C@@H](C)O)[C@@H](C)CC)[C@@H](C)CC)[C@@H](C)O)[C@@H](C)CC)C(=O)N[C@@H](CC(N)=O)C(=O)N[C@@H](CC(N)=O)C(=O)N[C@@H](Cc1ccc(O)cc1)C(=O)N[C@@H](CCN)C(=O)N[C@@H](Cc1c[nH]c2ccccc12)C(=O)N[C@@H](CCN)C(N)=O [compound 3] (H-[Dab]PFT[Dab]AQWFAIQHISP[Dab]TIAM[Dab]AINNY[Dab]W[Dab]-NH2) | 6.25 µM (≈ 21.4 µg/mL) | 14 ± 6% | 12.5 µM | 50 µM (≈ 171 µg/mL) | 182 ± 9 µM | 6.25 µM (≈ 21.4 µg/mL) | 3.13 µM (≈ 10.7 µg/mL) | 50 µM (≈ 171 µg/mL) | 6.25 µM (≈ 21.4 µg/mL) | 50 µM (≈ 171 µg/mL) | 50 µM (≈ 171 µg/mL) | 3.13 µM (≈ 10.7 µg/mL) | 6.25 µM (≈ 21.4 µg/mL) | hemolysis % (250 μM peptide) [3]: 10%
